Measurements reported in ChEMBL document CHEMBL4038290, “Structure activity relationship and optimization of N-(3-(2-aminothiazol-4-yl)aryl)benzenesulfonamides as anti-cancer compounds against sensitive and resistant cells” (Bioorg Med Chem Lett, 2017).
Activity calls are given as the source filed them. The rule behind the calls is not given here.

Legend:
[1] = test system: A-375; experiment: Antiproliferative activity against human A375 cells assessed as cell viability at 1 uM after 48 hrs by trypan blue exclusion assay; type: functional; conditions: for viability at 1 µM: A-375, 48 h, read-out: Activity
[2] = test system: A-375; experiment: Antiproliferative activity against human A375 cells assessed as cell viability at 5 uM after 48 hrs by trypan blue exclusion assay; type: functional; conditions: A-375, 48 h, read-out: Activity
[3] = test system: A-375; experiment: Antiproliferative activity against human A375 cells assessed as cell viability at 10 uM after 48 hrs by trypan blue exclusion assay; type: functional; conditions: A-375, 48 h, read-out: Activity
[4] = Growth inhibition of human A375 R5C3 cells assessed as cell viability at 10 uM after 48 hrs by trypan blue exclusion assay; type: functional; conditions: A-375, 48 h, read-out: Activity
[5] = Growth inhibition of human A375 RIV cells assessed as cell viability at 10 uM after 48 hrs by trypan blue exclusion assay; type: functional; conditions: A-375, 48 h, read-out: Activity
[6] = test system: K562; experiment: Growth inhibition of human K562 cells assessed as cell viability at 10 uM after 48 hrs by trypan blue exclusion assay; type: functional; conditions: K562, 48 h, read-out: Activity
[7] = test system: K-562R; experiment: Growth inhibition of human K562R cells assessed as cell viability at 10 uM after 48 hrs by trypan blue exclusion assay; type: functional; conditions: read-out: Activity
[8] = test system: MIA PaCa-2; experiment: Growth inhibition of gemcitabine-resistant human MIAPaCa2 cells assessed as cell viability at 10 uM after 48 hrs by trypan blue exclusion assay relative to control; type: functional; conditions: MIA PaCa-2, 48 h, read-out: Activity
[9] = test system: BXPC-3; experiment: Growth inhibition of human BxPC3 cells assessed as cell viability at 10 uM after 48 hrs by trypan blue exclusion assay; type: functional; conditions: BXPC-3, 48 h, read-out: Activity
[10] = test system: A-375; experiment: Antiproliferative activity against human A375 cells after 48 hrs by trypan blue exclusion assay; type: functional, cell-based; conditions: A-375, 48 h
[11] = molecular target: T1, Eukaryotic translation initiation factor 2-alpha kinase 3 (Homo sapiens) (UniProt Q9NZJ5); experiment: Activation of PERK in human A375 cells at 2.5 to 10 uM after 12 hrs by Western blot analysis; type: cell-based
T1 sequence (whole entry): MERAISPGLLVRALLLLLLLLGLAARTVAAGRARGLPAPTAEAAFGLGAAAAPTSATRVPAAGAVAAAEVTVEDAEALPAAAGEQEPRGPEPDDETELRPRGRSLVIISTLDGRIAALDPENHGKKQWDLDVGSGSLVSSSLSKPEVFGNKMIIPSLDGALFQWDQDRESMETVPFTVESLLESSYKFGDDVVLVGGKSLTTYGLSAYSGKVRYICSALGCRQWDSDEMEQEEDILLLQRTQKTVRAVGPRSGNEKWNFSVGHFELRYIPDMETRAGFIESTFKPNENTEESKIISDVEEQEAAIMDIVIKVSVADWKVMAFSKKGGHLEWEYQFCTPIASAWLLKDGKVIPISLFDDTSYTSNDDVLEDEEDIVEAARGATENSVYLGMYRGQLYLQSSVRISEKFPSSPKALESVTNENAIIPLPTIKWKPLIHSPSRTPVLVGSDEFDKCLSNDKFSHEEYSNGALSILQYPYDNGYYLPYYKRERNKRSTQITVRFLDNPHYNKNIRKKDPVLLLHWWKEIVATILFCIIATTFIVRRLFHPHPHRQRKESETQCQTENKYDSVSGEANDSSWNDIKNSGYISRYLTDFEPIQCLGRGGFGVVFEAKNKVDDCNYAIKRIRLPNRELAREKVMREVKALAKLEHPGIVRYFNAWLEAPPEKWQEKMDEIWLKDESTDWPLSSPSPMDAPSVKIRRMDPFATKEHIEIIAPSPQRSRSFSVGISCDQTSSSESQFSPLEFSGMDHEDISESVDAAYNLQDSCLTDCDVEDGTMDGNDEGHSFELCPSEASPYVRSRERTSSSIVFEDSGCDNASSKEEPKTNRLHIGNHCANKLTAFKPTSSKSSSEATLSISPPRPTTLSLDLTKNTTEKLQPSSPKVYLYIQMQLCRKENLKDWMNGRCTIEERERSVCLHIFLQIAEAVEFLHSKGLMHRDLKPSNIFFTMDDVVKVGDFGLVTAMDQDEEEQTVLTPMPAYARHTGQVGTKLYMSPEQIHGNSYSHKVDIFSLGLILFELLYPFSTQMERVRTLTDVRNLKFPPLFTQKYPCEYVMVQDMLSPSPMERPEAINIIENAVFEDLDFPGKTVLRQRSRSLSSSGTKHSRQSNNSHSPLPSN

[12] = molecular target: T1, Eukaryotic translation initiation factor 2-alpha kinase 3 (Homo sapiens); experiment: Activation of PERK in human A375 cells assessed as increase in CHOP expression at 2.5 to 10 uM after 12 hrs by Western blot analysis; type: cell-based
[13] = test system: A-375; experiment: Induction of autophagy in human A375 cells assessed as increase in conversion of LC3-I to LC3-II at 1 to 5 uM after 24 hrs by Western blot analysis; type: functional, cell-based
[14] = test system: A-375; experiment: Induction of autophagy in human A375 cells assessed as increase in conversion of LC3-I to LC3-II at 2.5 to 10 uM after 12 hrs by Western blot analysis; type: functional, cell-based
[15] = molecular target: T1, Eukaryotic translation initiation factor 2-alpha kinase 3 (Homo sapiens); experiment: Activation of PERK in human A375 cells assessed as increase in CHOP expression at 1 to 2.5 uM after 48 hrs by Western blot analysis; type: cell-based
[16] = test system: A-375; experiment: Induction of apoptosis in human A375 cells assessed as cleavage of PARP protein at 2.5 to 10 uM after 12 hrs by Western blot analysis; type: functional, cell-based
[17] = molecular target: T1, Eukaryotic translation initiation factor 2-alpha kinase 3 (Homo sapiens); experiment: Activation of PERK in human A375 cells at 1 to 2.5 uM after 48 hrs by Western blot analysis; type: cell-based
[18] = test system: A-375; experiment: Induction of autophagy in human A375 cells assessed as increase in conversion of LC3-I to LC3-II at 1 to 2.5 uM after 48 hrs by Western blot analysis; type: functional, cell-based

Structure (SMILES) | viability at 1 µM [1] [%] | viability at 5 µM [2] [%] | viability at 10 µM [3] [%] | further results
CC(=O)Nc1nc(-c2cccc(NS(=O)(=O)c3ccc(C#C[Si](C)(C)C)cc3)c2)cs1 | 94.3 | 4.2 | < 1 | –
CCCCCCC#Cc1ccc(S(=O)(=O)Nc2cccc(-c3csc(NC(C)=O)n3)c2)cc1 | 40.7 | 12.8 | 5.8 | –
CCCCCCC#Cc1ccc(S(=O)(=O)Nc2cccc(-c3csc(N)n3)c2)cc1 | 97.6 | < 1 | 3.5 | –
CCCCCCc1ccc(S(=O)(=O)Nc2cccc(-c3csc(NC(C)=O)n3)c2)cc1 | 49.9 | < 1 | – | viability at 10 µM [4]: 1.4%; viability at 10 µM [5]: 3.4%; viability at 10 µM [6]: 23.2%; viability at 10 µM [7]: 41.6%; viability at 10 µM [8]: 1.3%; viability at 10 µM [9]: 5.9%
CC(=O)Nc1nc(-c2cccc(NS(=O)(=O)c3cccc(C#CCO)c3)c2)cs1 | 85.4 | 66.2 | 45.3 | EC50 [10]: 10 µM
CC(=O)Nc1nc(-c2cccc(NS(=O)(=O)c3ccc(C#CCO)cc3)c2)cs1 | 81.3 | 99.3 | 48.8 | EC50 [10]: 10 µM
CC(=O)Nc1nc(-c2cccc(NS(=O)(=O)c3ccc(Br)cc3)c2)cs1 | – | 19.7 | 25.6 | Activity [1]: inactive
CC(=O)Nc1nc(-c2cccc(NS(=O)(=O)c3ccc(C#CC4CCCCC4)cc3)c2)cs1 | 52.3 | 1.2 | 1.2 | –
CCCCCC/C=C\c1ccc(S(=O)(=O)Nc2cccc(-c3csc(NC(C)=O)n3)c2)cc1 | 48.8 | 2.3 | – | viability at 10 µM [4]: < 1%; viability at 10 µM [5]: < 1%; viability at 10 µM [6]: 8.9%; viability at 10 µM [7]: 41.1%; viability at 10 µM [8]: 11.4%; viability at 10 µM [9]: 2%
CC(=O)Nc1nc(-c2cccc(NS(=O)(=O)c3cccc(Br)c3)c2)cs1 | – | 67.4 | 36 | Activity [1]: inactive
CCCCCCC#Cc1ccc(S(=O)(=O)Nc2cccc(-c3csc(Nc4ccccc4)n3)c2)cc1 | 87.1 | 59.2 | 5.8 | –
CCCCCCCCc1ccc(S(=O)(=O)Nc2cccc(-c3csc(NC(C)=O)n3)c2)cc1 | 34.8 | < 1 | < 1 | Activity [11]: Active; Activity [12]: Active; Activity [13]: Active; viability at 10 µM [4]: 1.4%; Activity [14]: Active; Activity [15]: Active; viability at 10 µM [5]: 2.6%; viability at 10 µM [6]: 3.8%; Activity [16]: Active; viability at 10 µM [7]: 10.1%; viability at 10 µM [8]: 11.4%; Activity [17]: Active; Activity [18]: Active; viability at 10 µM [9]: 4.9%
CCCCCCCCC#Cc1ccc(S(=O)(=O)Nc2cccc(-c3csc(NC(C)=O)n3)c2)cc1 | 39.6 | 8.9 | < 1 | –
CC(=O)Nc1nc(-c2cccc(NS(=O)(=O)c3ccc(C#CCCc4ccccc4)cc3)c2)cs1 | 11.5 | 4.2 | < 1 | –
CCCCCCC#Cc1cccc(S(=O)(=O)Nc2cccc(-c3csc(NC(C)=O)n3)c2)c1 | 56.9 | 1.2 | < 1 | –
CCCCC#Cc1ccc(S(=O)(=O)Nc2cccc(-c3csc(NC(C)=O)n3)c2)cc1 | 73.2 | 9.3 | < 1 | –
CCCCCCC#Cc1ccc(S(=O)(=O)Nc2cccc(-c3csc(NC)n3)c2)cc1 | 36.6 | 8.1 | 1.2 | –
C#Cc1ccc(S(=O)(=O)Nc2cccc(-c3csc(NC(C)=O)n3)c2)cc1 | 59.2 | 38.3 | 1.2 | –
CC(=O)Nc1nc(-c2cccc(NS(=O)(=O)c3cccc(C#C[Si](C)(C)C)c3)c2)cs1 | 61.6 | < 1 | 5.8 | –
C#Cc1cccc(S(=O)(=O)Nc2cccc(-c3csc(NC(C)=O)n3)c2)c1 | 74.3 | 29 | 18.6 | –
